Data from ChEMBL document CHEMBL5550218, “Structural Insights into Protein-Inhibitor Interactions in Human Tryptophan Dioxygenase” (J Med Chem, 2024).

Target: Tryptophan 2,3-dioxygenase (Homo sapiens, UniProt P48775)
Sequence (P48775 whole entry): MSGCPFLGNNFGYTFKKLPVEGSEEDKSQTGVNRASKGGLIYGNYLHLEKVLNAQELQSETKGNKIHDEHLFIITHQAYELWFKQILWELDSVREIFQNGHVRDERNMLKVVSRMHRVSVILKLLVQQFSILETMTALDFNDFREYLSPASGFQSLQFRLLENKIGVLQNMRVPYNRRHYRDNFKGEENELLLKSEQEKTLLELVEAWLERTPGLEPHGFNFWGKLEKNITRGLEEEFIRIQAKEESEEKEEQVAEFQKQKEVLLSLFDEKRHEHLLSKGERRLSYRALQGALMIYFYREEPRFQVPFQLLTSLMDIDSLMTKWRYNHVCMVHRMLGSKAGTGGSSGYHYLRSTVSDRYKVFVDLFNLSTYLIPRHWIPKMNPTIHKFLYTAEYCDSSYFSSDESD

O=C1CC(c2c[nH]c3ccc(F)cc23)C(=O)N1 (stereo unspecified) [PF-06840003]
IC50: 424 µM
